Test results reported in ChEMBL document CHEMBL4359836, “Synthesis and Biological Assessment of Pyrrolobenzoxazine Scaffold as a Potent Antioxidant” (J Med Chem, 2019).
The source made the active and inactive calls. No cut-off for these calls is given here.

How the values were obtained:
[1] = test system: Mitochondria; experiment: Antioxidant activity in goat cardiac mitochondria assessed as inhibition of CuCl2/ascorbic acid-induced manganese superoxide dismutase at 8.25 uM after 1 hr by pyrogallol autoxidation method relative to control; type: functional, subcellular; conditions: Capra hircus, Heart, Mitochrondria
[2] = Antioxidant activity in pH 10 Tris-HCl buffer assessed as superoxide anion radical scavenging activity by measuring rate of epinephrine auto-oxidation by spectrophotometric analysis; type: functional
[3] = Reducing power of the compound assessed as reducing Fe3+ power at 80 uM using K3Fe(CN)6 in pH 6.6 phosphate buffer after 20 mins by spectrophotometric analysis
[4] = test system: Mitochondria; experiment: Antioxidant activity in goat cardiac mitochondria assessed as inhibition of CuCl2/ascorbic acid-induced lipid peroxidation at 66 uM after 1 hr by thiobarbituric acid based UV-Visible spectrophotometric method (reference value: 60.11%); type: functional, subcellular; conditions: Capra hircus, Heart, Mitochrondria
[5] = test system: Mitochondria; experiment: Antioxidant activity in goat cardiac mitochondria assessed as inhibition of CuCl2/ascorbic acid-induced protein carbonyl content at 8.25 uM after 1 hr by DNPH assay relative to control; type: functional, subcellular; conditions: Capra hircus, Heart, Mitochrondria
[6] = test system: Mitochondria; experiment: Antioxidant activity in goat cardiac mitochondria assessed as inhibition of CuCl2/ascorbic acid-induced protein carbonyl content at 33 uM after 1 hr by DNPH assay relative to control; type: functional, subcellular; conditions: Capra hircus, Heart, Mitochrondria
[7] = test system: Mitochondria; experiment: Antioxidant activity in goat cardiac mitochondria assessed as inhibition of CuCl2/ascorbic acid-induced protein carbonyl content at 66 uM after 1 hr by DNPH assay relative to control; type: functional, subcellular; conditions: Capra hircus, Heart, Mitochrondria
[8] = test system: Mitochondria; experiment: Antioxidant activity in goat cardiac mitochondria assessed as reversal of CuCl2/ascorbic acid-induced reduction in GSH level at 66 uM after 1 hr by DTNB reagent based method relative to control; type: functional, subcellular; conditions: Capra hircus, Heart, Mitochrondria
[9] = test system: Mitochondria; experiment: Antioxidant activity in goat cardiac mitochondria assessed as reversal of CuCl2/ascorbic acid-induced reduction in GSH level after 1 hr by DTNB reagent based method; type: functional, subcellular; conditions: Capra hircus; Heart; Mitochrondria
[10] = test system: Mitochondria; experiment: Antioxidant activity in goat cardiac mitochondria assessed as reversal of CuCl2/ascorbic acid-induced reduction in PDH level at 8.25 uM using sodium pyruvate as substrate after 1 hr by spectrophotometric analysis (reference value: 66.25%); type: functional, subcellular; set-up: scale not given: the % may be the effect or the level left; conditions: Capra hircus, Heart, Mitochrondria
[11] = test system: Mitochondria; experiment: Antioxidant activity in goat cardiac mitochondria assessed as reversal of CuCl2/ascorbic acid-induced reduction in PDH level at 66 uM using sodium pyruvate as substrate after 1 hr by spectrophotometric analysis relative to control; type: functional, subcellular; conditions: Capra hircus, Heart, Mitochrondria
[12] = test system: Mitochondria; experiment: Antioxidant activity in goat cardiac mitochondria assessed as reversal of CuCl2/ascorbic acid-induced reduction in ICDH level at 8.25 uM using isocitrate as substrate after 1 hr (reference value: 65.58%); type: functional, subcellular; set-up: scale not given: the % may be the effect or the level left; conditions: Capra hircus, Heart, Mitochrondria
[13] = test system: Mitochondria; experiment: Antioxidant activity in goat cardiac mitochondria assessed as reversal of CuCl2/ascorbic acid-induced reduction in alpha-KGDH level at 8.25 uM using alpha-ketoglutarate as substrate after 1 hr (reference value: 69.78%); type: functional, subcellular; set-up: scale not given: the % may be the effect or the level left; conditions: Capra hircus, Heart, Mitochrondria
[14] = test system: Mitochondria; experiment: Antioxidant activity in goat cardiac mitochondria assessed as reversal of CuCl2/ascorbic acid-induced reduction in alpha-KGDH level at 16.5 uM using alpha-ketoglutarate as substrate after 1 hr (reference value: 69.78%); type: functional, subcellular; set-up: scale not given: the % may be the effect or the level left; conditions: Capra hircus, Heart, Mitochrondria
[15] = test system: Mitochondria; experiment: Antioxidant activity in goat cardiac mitochondria assessed as reversal of CuCl2/ascorbic acid-induced reduction in alpha-KGDH level at 33 uM using alpha-ketoglutarate as substrate after 1 hr relative to control; type: functional, subcellular; conditions: Capra hircus, Heart, Mitochrondria
[16] = test system: Mitochondria; experiment: Antioxidant activity in goat cardiac mitochondria assessed as reversal of CuCl2/ascorbic acid-induced reduction in SDH level at 8.25 uM using succinate as substrate after 1 hr by spectrophotometric analysis (reference value: 71.51%); type: functional, subcellular; set-up: scale not given: the % may be the effect or the level left; conditions: Capra hircus, Heart, Mitochrondria
[17] = test system: Mitochondria; experiment: Antioxidant activity in goat cardiac mitochondria assessed as reversal of CuCl2/ascorbic acid-induced reduction in SDH level at 33 uM using succinate as substrate after 1 hr by spectrophotometric analysis relative to control; type: functional, subcellular; conditions: Capra hircus, Heart, Mitochrondria
[18] = test system: Mitochondria; experiment: Antioxidant activity in goat cardiac mitochondria assessed as reversal of CuCl2/ascorbic acid-induced reduction in SDH level at 66 uM using succinate as substrate after 1 hr by spectrophotometric analysis relative to control; type: functional, subcellular; conditions: Capra hircus, Heart, Mitochrondria
[19] = Effect on ICDH levels in goat cardiac mitochondria at 8.25 to 66 uM using isocitrate as substrate after 1 hr; type: ADME, subcellular, Capra hircus, Heart, Mitochrondria
[20] = Effect on SDH levels in goat cardiac mitochondria at 8.25 to 66 uM using succinate as substrate after 1 hr by spectrophotometric analysis; type: ADME, subcellular, Capra hircus, Heart, Mitochrondria
[21] = Inhibition of PDH in goat cardiac mitochondria assessed as effect on Vmax at 66 uM using sodium pyruvate as substrate after 1 hr by Lineweaver-Burk double reciprocal plot analysis; set-up: species or system Capra hircus, Heart
[22] = Inhibition of ICDH in goat cardiac mitochondria assessed as effect on Vmax at 66 uM using isocitrate as substrate after 1 hr by Lineweaver-Burk double reciprocal plot analysis; set-up: species or system Capra hircus, Heart
[23] = Inhibition of alpha-ketoglutarate dehydrogenase in goat cardiac mitochondria assessed as effect on Vmax at 66 uM using alpha-ketoglutarate as substrate after 1 hr by Lineweaver-Burk double reciprocal plot analysis; set-up: species or system Capra hircus, Heart
[24] = organism: Capra hircus; experiment: Effect on alpha-ketoglutarate dehydrogenase in goat cardiac mitochondria assessed as reversal of CuCl2/ascorbic acid induced reduction in Km at 66 uM using alpha-ketoglutarate as substrate after 1 hr by Lineweaver-Burk double reciprocal plot analysis; conditions: Heart
[25] = Effect on manganese superoxide dismutase-like activity in cardiac mitochondria at 8.25 to 66 uM after 1 hr by pyrogallol autoxidation method relative to control; type: ADME, subcellular, Capra hircus, Heart, Mitochrondria; conditions: goat
[26] = test system: Mitochondria; experiment: Protective activity against CuCl2/ascorbic acid-induced apoptotic alteration in goat cardiac mitochondria assessed as reversal of CuCl2/ascorbic acid-induced reduction in cytochrome c oxidoreductase activity at 66 uM incubated for 1 hr and measured at 10 secs time interval for 90 secs by spectrophotometric analysis (reference value: 47.82%); type: functional, subcellular; set-up: scale not given: the % may be the effect or the level left; conditions: Capra hircus, Heart, Mitochrondria
[27] = test system: Mitochondria; experiment: Protective activity against CuCl2/ascorbic acid-induced apoptotic alteration in goat cardiac mitochondria assessed as reversal of CuCl2/ascorbic acid-induced reduction in cytochrome c oxidase activity at 8.25 uM and measured at 10 secs time interval for 90 secs by spectrophotometric analysis (reference value: 72.41%); type: functional, subcellular; set-up: scale not given: the % may be the effect or the level left; conditions: Capra hircus, Heart, Mitochrondria
[28] = test system: Mitochondria; experiment: Protective activity against CuCl2/ascorbic acid-induced apoptotic alteration in goat cardiac mitochondria assessed as reversal of CuCl2/ascorbic acid-induced reduction in cytochrome c oxidase activity at 16.5 uM incubated for 1 hr and measured at 10 secs time interval for 90 secs by spectrophotometric analysis relative to control; type: functional, subcellular; conditions: Capra hircus, Heart, Mitochrondria
[29] = test system: Mitochondria; experiment: Protective activity against CuCl2/ascorbic acid-induced apoptotic alteration in goat cardiac mitochondria assessed as reversal of CuCl2/ascorbic acid-induced reduction in cytochrome c oxidase activity at 33 uM incubated for 1 hr and measured at 10 secs time interval for 90 secs by spectrophotometric analysis relative to control; type: functional, subcellular; conditions: Capra hircus, Heart, Mitochrondria
[30] = test system: Mitochondria; experiment: Protective activity in goat cardiac mitochondria assessed as inhibition of CuCl2/ascorbic acid-induced convoluted membranes at 66 uM incubated for 1 hr by scanning electron microscopy; type: functional, subcellular; conditions: Capra hircus, Heart, Mitochrondria
[31] = test system: Mitochondria; experiment: Protective activity in goat cardiac mitochondria assessed as reduction in CuCl2/ascorbic acid-induced calcium accumulation at 66 uM after 60 min (reference value: 25.32%); type: functional, subcellular; set-up: scale not given: the % may be the effect or the level left; conditions: Capra hircus, Heart, Mitochrondria
[32] = Binding affinity to Cu2+ assessed as decrease in heat change at 66 uM in presence of CuCl2 by isothermal titration calorimetry

**Q.** Which results are given for `CCOC(=O)c1c(-c2ccc(O)c(OC)c2)cn2c1c(=O)oc1ccccc12`?
**A.** inhibition [1]: 25.7%; Activity [2]: Dose-dependent effect; Activity [3]: Dose-dependent effect; inhibition [4]: 36.4%; inhibition [5]: 21.9%; inhibition [6]: 64.8%; inhibition [7]: 72.1%; fold change (FC) [8]: 6.3; Activity [9]: Dose-dependent effect; Activity [10]: 49.3%; fold change (FC) [11]: 3.82; Activity [12]: 37.7%; Activity [13]: 43.1%; Activity [14]: 85.4%; fold change (FC) [15]: 2.74; Activity [16]: 51.7%; fold change (FC) [17]: 3.06; fold change (FC) [18]: 5; Activity [19]: Non-Toxic; Activity [20]: Non-Toxic; inhibition (INH) [21]: Not Active; inhibition (INH) [22]: Not Active; inhibition (INH) [23]: Not Active; Activity [24]: Active; Activity [25]: Non-Toxic; Activity [26]: 85.2%; Activity [27]: 56.2%; fold change (FC) [28]: 2.36; fold change (FC) [29]: 3.5; Activity [30]: Active; Activity [31]: 15%; Activity [32]: Active
